From ChEMBL document CHEMBL6078673, “Synthesis and anti-tumor activity of menthylamine derivatives: Focusing on the potent inhibitory effect of compound W8 on glioma growth” (Bioorg Med Chem, 2025)
pIC50: −log10 of the molar value. Values after ≈ are worked out from the molar mass of the structure shown. Active and inactive are the calls of the source. The rule behind the calls is not given here.

Legend:
[1] = Toxicity in Balb/c mouse xenografted with human U87 cells assessed as histological change in brain at 10 mg/kg,ip administered every 3 days measured after 27 days by hematoxylin and eosin staining based assay; format: organism-based; conditions: in vivo, 648 h, time 27 day
U-87 MG [2] = experiment: Induction of apoptosis in human U87 cells at 80 uM incubated for 24 hrs by Annexin V-FITC/PI staining based flow cytometry; format: functional, U-87MG ATCC
U-87 MG [3] = experiment: Induction of cell cycle arrest in human U87 cells assessed as decrease in number of cells at G2 phase at 80 uM incubated for 24 hrs by RNase/PI staining based flow cytometry; format: functional; conditions: U-87MG ATCC
HCT-116 = experiment: Antiproliferative activity against human HCT-116 cells assessed as inhibition of cell growth incubated for 24 hrs by CCK-8 assay; format: functional, cell-based; conditions: HCT-116, 24 h
U-87 MG [4] = experiment: Induction of apoptosis in human U87 cells assessed as increase in number of late apoptotic cells at 80 uM incubated for 24 hrs by Annexin V-FITC/PI staining based flow cytometry; format: functional, cell-based; conditions: U-87MG ATCC
U-87 MG [5] = experiment: Induction of apoptosis in human U87 cells assessed as increase in number of early apoptotic cells at 80 uM incubated for 24 hrs by Annexin V-FITC/PI staining based flow cytometry; format: functional, cell-based; conditions: U-87MG ATCC
[6] = Toxicity in Balb/c mouse xenografted with human U87 cells assessed as histological change in heart at 10 mg/kg,ip administered every 3 days measured after 27 days by TUNEL staining based assay; format: organism-based; conditions: in vivo, 648 h, time 27 day
[7] = Toxicity in Balb/c mouse xenografted with human U87 cells assessed as histological change in spleen at 10 mg/kg,ip administered every 3 days measured after 27 days by TUNEL staining based assay; format: organism-based; conditions: in vivo, 648 h, time 27 day
U-87 MG [8] = experiment: Induction of cell cycle arrest in human U87 cells assessed as increase in number of cells at S phase at 80 uM incubated for 24 hrs by RNase/PI staining based flow cytometry; format: functional; conditions: U-87MG ATCC
U-87 MG [9] = experiment: Antiproliferative activity against human U87 cells assessed as inhibition of cell growth incubated for 24 hrs by CCK-8 assay; format: functional, cell-based, U-87MG ATCC
[10] = Metabolic stability in liver microsomes (unknown origin) assessed as half life incubated for 60 mins by LC-MS/MS analysis; format: ADME, Microsome
[11] = Toxicity in Balb/c mouse xenografted with human U87 cells assessed as body weight loss at 10 mg/kg,ip administered every 3 days measured after 27 days; format: organism-based; conditions: in vivo, 648 h, time 27 day
U-87 MG [12] = experiment: Antitumor activity in human U87 cells assessed as downregulation of VEGFR2 expression at 80 uM incubated for 24 hrs by Western blotting analysis; format: functional, cell-based; conditions: U-87MG ATCC
[13] = Toxicity in Balb/c mouse xenografted with human U87 cells assessed as histological change in heart at 10 mg/kg,ip administered every 3 days measured after 27 days by hematoxylin and eosin staining based assay; format: organism-based; conditions: in vivo, 648 h, time 27 day
[14] = Toxicity in Balb/c mouse xenografted with human U87 cells assessed as histological change in liver at 10 mg/kg,ip administered every 3 days measured after 27 days by hematoxylin and eosin staining based assay; format: organism-based; conditions: in vivo, 648 h, time 27 day
[15] = Toxicity in Balb/c mouse xenografted with human U87 cells assessed as histological change in lung at 10 mg/kg,ip administered every 3 days measured after 27 days by hematoxylin and eosin staining based assay; format: organism-based; conditions: in vivo, 648 h, time 27 day
[16] = Efflux ratio of apparent permeability from basolateral to apical side over apical to basolateral side in human Caco-2 cells at 2 uM incubated for 2 hr by LC-MS/MS analysis; format: ADME, cell-based; conditions: Caco-2
[17] = Toxicity in Balb/c mouse xenografted with human U87 cells assessed as histological change in brain at 10 mg/kg,ip administered every 3 days measured after 27 days by TUNEL staining based assay; format: organism-based; conditions: in vivo, 648 h, time 27 day
[18] = Apparent permeability across basolateral to apical side in human Caco-2 cells at 2 uM incubated for 2 hrs by LC-MS/MS analysis; format: ADME, cell-based; conditions: Caco-2
U-87 MG [19] = experiment: Antitumor activity in human U87 cells assessed as downregulation of CD133 expression at 80 uM incubated for 24 hrs by Western blotting analysis; format: functional, cell-based; conditions: U-87MG ATCC
[20] = Toxicity in Balb/c mouse xenografted with human U87 cells assessed as histological change in kidney at 10 mg/kg,ip administered every 3 days measured after 27 days by hematoxylin and eosin staining based assay; format: organism-based; conditions: in vivo, 648 h, time 27 day
U-87 MG [21] = experiment: Inhibition of cell migration in human U87 cells at 80 uM incubated for 48 hrs by scratch assay; format: functional, cell-based; conditions: U-87MG ATCC
U-87 MG [22] = experiment: Antitumor activity in human U87 cells assessed as downregulation of […] expression at 80 uM incubated for 24 hrs by Western blotting analysis; format: functional, cell-based; conditions: U-87MG ATCC
U-87 MG [23] = experiment: Induction of cell cycle arrest in human U87 cells assessed as decrease in number of cells at G1 phase at 80 uM incubated for 24 hrs by RNase/PI staining based flow cytometry; format: functional; conditions: U-87MG ATCC
[24] = Toxicity in Balb/c mouse xenografted with human U87 cells assessed as histological change in lung at 10 mg/kg,ip administered every 3 days measured after 27 days by TUNEL staining based assay; format: organism-based; conditions: in vivo, 648 h, time 27 day
MCF7 = experiment: Antiproliferative activity against human MCF7 cells assessed as inhibition of cell growth incubated for 24 hrs by CCK-8 assay; format: functional, cell-based; conditions: MCF7, 24 h
U-87 MG [25] = experiment: Antitumor activity in human U87 cells assessed as upregulation of cleaved caspase-3 expression at 80 uM incubated for 24 hrs by Western blotting analysis; format: functional, cell-based; conditions: U-87MG ATCC
KYSE-150 cell line = experiment: Antiproliferative activity against human KYSE-150 cell line assessed as inhibition of cell growth incubated for 24 hrs by CCK-8 assay; format: functional, cell-based; conditions: KYSE-150, 24 h
[26] = Metabolic stability in liver microsomes (unknown origin) assessed as compound remaining incubated for 60 mins by LC-MS/MS analysis; format: ADME, Microsome; conditions: read-out: Stability
[27] = Apparent permeability across apical to basolateral side in human Caco-2 cells at 2 uM incubated for 2 hrs by LC-MS/MS analysis; format: ADME, cell-based; conditions: Caco-2
[28] = Toxicity in Balb/c mouse xenografted with human U87 cells assessed as histological change in spleen at 10 mg/kg,ip administered every 3 days measured after 27 days by hematoxylin and eosin staining based assay; format: organism-based; conditions: in vivo, 648 h, time 27 day
U-87 MG [29] = experiment: Antitumor activity against human U87 cells xenografted in Balb/c mouse assessed as reduction in tumor size at 10 mg/kg,ip administered every 3 days measured after 27 days; format: functional, organism-based; conditions: U-87MG ATCC, time 27.0 day
U-87 MG [30] = experiment: Antiangiogenesis activity in human U87 cells assessed as inhibition of neovascularization at 80 uM incubated for 12 hrs by inverted fluorescence microscopic analysis; format: functional, cell-based; conditions: U-87MG ATCC
U-87 MG [31] = experiment: Antitumor activity in human U87 cells assessed as downregulation of ANGP-2 expression at 80 uM incubated for 24 hrs by Western blotting analysis; format: functional, cell-based; conditions: U-87MG ATCC
[32] = Toxicity in Balb/c mouse xenografted with human U87 cells assessed as histological change in kidney at 10 mg/kg,ip administered every 3 days measured after 27 days by TUNEL staining based assay; format: organism-based; conditions: in vivo, 648 h, time 27 day
U-87 MG [33] = experiment: Induction of apoptosis in human U87 cells assessed as increase in number of apoptotic cells at 80 uM incubated for 24 hrs by Annexin V-FITC/PI staining based flow cytometry; format: functional, cell-based; conditions: U-87MG ATCC
U-87 MG [34] = experiment: Inhibition of cell invasion in human U87 cells incubated for 48 hrs by crystal violet staining based microscopic analysis; format: functional; conditions: U-87MG ATCC
[35] = Toxicity in Balb/c mouse xenografted with human U87 cells assessed as histological change in liver at 10 mg/kg,ip administered every 3 days measured after 27 days by TUNEL staining based assay; format: organism-based; conditions: in vivo, 648 h, time 27 day
[36] = Kinetic solubility in PBS at pH 7.4 incubated under shaking condition for 24 hrs by LC-MS/MS analysis; format: physicochemical; conditions: read-out: Kinetic_solubility
HUVEC = experiment: Antiangiogenesis activity in human HUVEC cells assessed as inhibition of vascular structure formation at 80 uM incubated for 12 hrs by inverted fluorescence microscopic analysis; format: functional, cell-based
U-87 MG [37] = experiment: Induction of apoptosis in human U87 cells assessed as increase in number of necrotic cells at 80 uM incubated for 24 hrs by Annexin V-FITC/PI staining based flow cytometry; format: functional, cell-based; conditions: U-87MG ATCC

Compound: CC(C)[C@H]1CC[C@@H](C)C[C@@H]1N1C(=O)c2ccccc2C1=O
- Activity [1]: Non-toxic
- Activity (U-87 MG [2]): 90%
- Activity (U-87 MG [3]): inactive
- pIC50 (HCT-116): 4.24
- Activity (U-87 MG [4]): Active
- Activity (U-87 MG [5]): Active
- Activity [6]: Non-toxic
- Activity [7]: Non-toxic
- Activity (U-87 MG [8]): inactive
- pIC50 (U-87 MG [9]): 4.18
- half-life [10]: > 2.42 h
- Activity [11]: Non-toxic
- Activity (U-87 MG [12]): Active
- Activity [13]: Non-toxic
- Activity [14]: Non-toxic
- Activity [15]: Non-toxic
- efflux ratio at 2 h, 2 µM [16]: 0.52
- Activity [17]: Non-toxic
- Papp B→A at 2 h, 2 µM [18]: 13.3 ×10⁻⁶ cm/s
- Activity (U-87 MG [19]): Active
- Activity [20]: Non-toxic
- inhibition (U-87 MG [21]): Active
- Activity (U-87 MG [22]): Active
- Activity (U-87 MG [23]): inactive
- Activity [24]: Non-toxic
- pIC50 (MCF7): 2.83
- Activity (U-87 MG [25]): Active
- pIC50 (KYSE-150 cell line): 3.01
- remaining at 1 h [26]: 82.8%
- Papp A→B at 2 h, 2 µM [27]: 25.7 ×10⁻⁶ cm/s
- Activity [28]: Non-toxic
- Activity (U-87 MG [29]): Active
- Activity (U-87 MG [30]): Active
- Activity (U-87 MG [31]): Active
- Activity [32]: Non-toxic
- Activity (U-87 MG [33]): Active; Significantly Increased Activity Observed
- inhibition (U-87 MG [34]): Active
- Activity [35]: Non-toxic
- solubility kinetic at 24 h [36]: 0.03 µM (≈ 8.56 ng/mL)
- Activity (HUVEC): Active
- Activity (U-87 MG [37]): Active
